Like-named read-outs stand apart in the source and are kept apart here.
Assays:
NcLPMO9C [1] = target: T1, NcLPMO9C (Neurospora crassa, UniProt Q7SHI8); settings: for Rate (Light Intensity at 620 nm min^−1): 0.5 µM NcLPMO9C, 1 mM ascorbic acid, 100 µM H2O2, pH 6.0, acetic acid 200 mM, mean ± SD; for activity: pH 6
T1 sequence (Q7SHI8 17-359): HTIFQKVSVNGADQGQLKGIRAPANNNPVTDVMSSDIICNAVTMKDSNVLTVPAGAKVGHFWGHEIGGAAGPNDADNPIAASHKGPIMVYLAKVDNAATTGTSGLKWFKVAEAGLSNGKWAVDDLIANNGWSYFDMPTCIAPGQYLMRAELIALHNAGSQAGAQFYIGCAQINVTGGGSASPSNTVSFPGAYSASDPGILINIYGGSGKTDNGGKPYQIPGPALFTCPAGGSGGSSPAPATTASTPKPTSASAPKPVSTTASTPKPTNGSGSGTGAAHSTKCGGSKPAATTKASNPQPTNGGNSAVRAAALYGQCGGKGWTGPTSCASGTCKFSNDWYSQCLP
Procedure: LPMO activity was measured by the attenuation of optical density at 620 nm at 30 °C in 100 mM sodium acetate, 100 mM sodium citrate, or 100 mM sodium phosphate buffer, pH 6.0. […] The pH was checked before and after the measurements. A total volume of 2.5 mL contained 100 mM of buffer, pH 6.0, 0.8 mg/mL PASC, 0.5 or 1.0 µM of NcLPMO9C, 1 mM ascorbic acid or 1 µM NcCDHIIA with 10 mM lactose. A 10 mm quartz cuvette with a magnetic stirrer was used to maintain a homogeneously mixed PASC suspension.
To measure the inhibition by oxalic acid, the change in light intensity per minute was calculated at different inhibitor concentrations. […] LPMO was reduced with ascorbic acid and mixed with H2O2 to measure the activity.
LPMO peroxygenase activity was tested on PASC using a turbidity assay. Reaction was started with H2O2 and rates were obtained from light-intensity decrease at 620 nm. Assay contained 0.5 µM (A) or 1.0 µM (B) NcLPMO9C, 0.8 mg mL^−1 PASC, 1 mM ascorbic acid and 100 µM H2O2, respectively. H2O2 was added after 30 s to the stirred cuvette and the rate calculated from 40 s up to 200 s, having a data interval for each point of 0.1 s. pH was checked after all measurements and data are expressed as mean values (±SE), from three independent repeats. IC50 values were obtained by a nonlinear curve fit and calculating the oxalic acid concentration of oxalic acid at 50% of the rate.

NcCDHIIA = assay: Amplex Red–horseradish peroxidase assay, background H2O2 production by CDH; assay type: biochemical, Neurospora crassa; settings: for Specific activity, Background: without LPMO, 1 µM NcCDHIIA, 10 mM lactose, 50 µM AmplexRed, 7 U mL-1 horseradish peroxidase
Procedure: (§1) The Amplex Red–horseradish peroxidase assay was used to measure the uncoupling reaction of NcLPMO9C that produces superoxide or H2O2. The activity of LPMO was measured in the presence of oxalic acid as an inhibitory compound.

NcLPMO9C [2] = target: T1, NcLPMO9C; settings: - Ascorbic acid (blank); 4 h, 4 × 100 µM H2O2, 100 mM compound
Procedure: NcLPMO9C (1 µM) was incubated with 2 mg mL^−1 PASC, either 1 mM ascorbic acid or 1 µM NcCDHIIA together with 10 mM lactose as reductant and 400 µM H2O2 (4 × 100 µM) as cosubstrate at a total volume of 1 mL. At the beginning and after every hour, 100 µM H2O2 was added to the reaction. The reaction tubes were closed and continuously mixed in the dark for a total reaction time of 4 h. Reactions were stopped by heating to 95 °C for 10 min. The remaining PASC was removed by centrifugation, and the supernatant was analyzed by HPLC. Soluble cello-oligomers (DP 1–6) were used as standards to quantify LPMO-released products. To test the effect of different buffers or inhibitors, 100 mM sodium acetate buffer, pH 6.0, was supplemented with 100 mM of the different compounds.
We analyzed cello-oligomeric product formation after PASC treatment with NcLPMO9C, which is released as a byproduct of cellulose oxidation. […] Conditions with different buffers and reducing agents were tested. In all experiments, LPMO, PASC and H2O2 were present. As a reducing agent, ascorbic acid was chosen, whereas blank reactions were carried out in the absence of ascorbic acid.
H2O2 was added four times every hour.

NcLPMO9C [3] = target: T1, NcLPMO9C; assay: Amplex Red–horseradish peroxidase assay of the uncoupling reaction (H2O2 production) of LPMO; assay type: biochemical; parameters: made in house; host or cells: Pichia pastoris X-33; settings: 1 µM NcLPMO9C, 1 µM NcCDHIIA, 10 mM lactose, 50 µM AmplexRed, 7 U mL-1 horseradish peroxidase; for Specific activity, NcLPMO9C - background: 100 mM sodium acetate buffer pH 6.0, without or with 100 mM oxalic acid; for Specific activity, NcLPMO9C: not background-corrected
Procedure: as §1

NcLPMO9C [4] = target: T1, NcLPMO9C; settings: for Residual activity to 100 mM acetate buffer, Hydro-Coerulignone: pH 6; for peroxidase activity of LPMO at higher concentrations: >100 mM of the substance, 2,6-DMP and hydrocoerulignone assays
Procedure: (§2) LPMO-activity assay using 2000 µM 2,6-DMP or 500 µM hydrocoerulignone were carried out in 100 mM sodium acetate buffer at pH 6.0, at 30 °C using 100 µM H2O2, at 469 nm and a reaction time of 300 s. For blank reactions, the same experiments were performed without adding LPMO. The resulting rate was subtracted from the rate with the addition of LPMO. One unit of LPMO activity is defined as the conversion of either 2 µmol 2,6-DMP or 1 µmol hydrocoerulignone or the formation of 1 µmol coerulignone (ε469 = 53,200 M^−1 cm^−1) per min under reaction conditions. For the inhibition tests, the 100 mM sodium acetate buffer at pH 6.0 was supplemented with 100 mM of the different compounds and the pH was checked before and after the measurements.
(§3) By measuring the LPMO activity in 100 mM sodium acetate buffer, we determined the maximum activity achievable for the applied conditions.

NcLPMO9C [5] = target: T1, NcLPMO9C; assay: biochemical; settings: for remaining activity at 100000 µM: pH 6, read-out: Residual activity to 100 mM acetate buffer, Hydro-Coerulignone; for IC50: IC50 values as summarised in the text, for both assays (2,6-DMP and hydrocoerulignone), peroxidase reaction
Procedure: as §2, §3

SMILES	Rate (Light Intensity at 620 nm min^−1) (NcLPMO9C [1])	Total cello-oligomers produced (NcLPMO9C [2]) [µM]	cellobiose produced (NcLPMO9C [2]) [µM]	cellotetraose produced (NcLPMO9C [2]) [µM]	cellotriose produced (NcLPMO9C [2]) [µM]	further results
CC(=O)O [Acetic acid]	0.14 ± 0.01 Light Intensity at 620 nm min^−1	14.6	4.2	6.2	4.3	Specific activity, Background (NcCDHIIA): 2.6 ± 0.1 U g-1; Specific activity, NcLPMO9C - background (NcLPMO9C [3]): 4.9 ± 0.1 U g-1; Specific activity, NcLPMO9C (NcLPMO9C [3]): 7.5 ± 0.1 U g-1
[F-].[Na+] [NaF]						effect on the activity of the LPMO (NcLPMO9C [4]; peroxidase assays): did not show any effect on the activity of the LPMO until very high concentrations were used
c1c[nH]cn1 [Imidazole]						Residual activity to 100 mM acetate buffer, Hydro-Coerulignone (NcLPMO9C [4]): 72.2 ± 3.9%
O=C(O)CC(O)(CC(=O)O)C(=O)O [Citric acid]	0.014 ± 0.001 Light Intensity at 620 nm min^−1	17.3	7.2	5.9	4.2	peroxidase activity of LPMO at higher concentrations (NcLPMO9C [4]): nondetectable level; activity (NcLPMO9C [1]): 8 ± 1%
CC(O)C(=O)O (centres unmarked) [Lactic acid]	0.08 ± 0.02 Light Intensity at 620 nm min^−1	12.4	3.5	5.4	3.6	activity (NcLPMO9C [1]): 47 ± 13%
CC(=O)C(=O)O [Pyruvic acid]		9.0	5.6		3.3	remaining activity at 100000 µM (NcLPMO9C [5]): 4.1 ± 0.4%
N[C@@H](Cc1c[nH]cn1)C(=O)O [Histidine]						IC50 (NcLPMO9C [5]): ~1 mM; remaining activity at 100000 µM (NcLPMO9C [5]): 0.4 ± 0.2%; peroxidase activity of LPMO at higher concentrations (NcLPMO9C [4]): nondetectable level
O=CC=O [Glyoxal]						Residual activity to 100 mM acetate buffer, Hydro-Coerulignone (NcLPMO9C [4]): 43.9 ± 3.6%
O=P(O)(O)O [Phosphoric acid]	0.107 ± 0.02 Light Intensity at 620 nm min^−1	14.8	6.9	4.6	3.3	
O=C(O)C(=O)O [Oxalic acid]	0.002 ± 0.001 Light Intensity at 620 nm min^−1	15.8	6.8	5.3	3.7	IC50 (NcLPMO9C [5]): ~1 mM; remaining activity at 100000 µM (NcLPMO9C [5]): 0.6 ± 0.1%; peroxidase activity of LPMO at higher concentrations (NcLPMO9C [4]): nondetectable level; H2O2 production by NcCDHIIA (NcCDHIIA; 100 mM oxalic acid): not inhibited; Specific activity, Background (NcCDHIIA): 3.4 ± 0.1 U g-1; Specific activity, NcLPMO9C - background (NcLPMO9C [3]): 0.1 ± 0.1 U g-1; Specific activity, NcLPMO9C (NcLPMO9C [3]): 3.5 ± 0.1 U g-1
O=CC(=O)O [Glyoxylic acid]						Residual activity to 100 mM acetate buffer, Hydro-Coerulignone (NcLPMO9C [4]): 1.1 ± 0.3%
O=S(=O)([O-])[O-].[Na+].[Na+] [Na2SO4]						IC50 (NcLPMO9C [4]; read-out: IC50 values as summarised in the text, for both assays (2,6-DMP and hydrocoerulignone), peroxidase reaction): ~30 mM
